From publication PMC3880807 (ACS chemical biology, 2013)

Biological target: Src (Gallus gallus, UniProt P00523, Y527F)
Test: In vitro activity assay with Src phospho-isoforms
Type: biochemical
Settings: npY416-Src vs pY416-Src

Fold-difference in Ki, preference for npY416-Src over pY416-Src: ~ 11 fold
Structure (SMILES): CNC(=O)c1cc(Oc2ccc(NC(=O)Nc3cc(C(C)(C)C)nn3-c3ccc4ncccc4c3)c(F)c2)ccn1 [compound 1, Rebastinib]
